The text below walks through data of patent US9150632B2 (Indiana University Research and Technology Corporation, priority 2009, dated 2015).

Like-named read-outs stand apart in the source and are kept apart here. Non-standard residues stand in square brackets, D forms with d. Residues, ends and D or L forms follow the SMILES beside them. No end group written: not given here. *: point of attachment. Palmitoyl = CCCCCCCCCCCCCCCC(=O)*; Myristoyl = CCCCCCCCCCCCCC(=O)*; Aib = CC(C)(N)C(=O)O

One assay concerns the target T1, glucagon receptor (Homo sapiens, UniProt P47871).
T1 construct: expressed in transfected cells; host or cells: HEK293
Nature of the assay: Functional assay-cAMP synthesis, luciferase reporter in HEK293 cells, glucagon receptor. Particulars: for % Activity of Glucagon: Table 21, relative to the native peptide; for % Relative activity at the Receptor for Glucagon: relative to the native hormone; for Glucagon Receptor % relative activity: activity relative to the native hormone at the indicated receptor. In kind it is cell-based. (In general: Reporter assays use an easily measured gene product as a stand-in for the process of interest.)

The next assay has as its target GLP-1 receptor (Homo sapiens, UniProt P43220). The conditions noted are these: for % Activity of GLP-1: Table 21, relative to the native peptide; for % Relative activity at the Receptor for GLP-1: relative to the native hormone; for GLP-1 Receptor % relative activity: activity relative to the native hormone at the indicated receptor; for EC50: read-out: GLP-1 Receptor EC50, cAMP induction, in vitro, as in Example 14.

The next assay has as its target T2, GIP receptor (Homo sapiens, UniProt P48546).
T2 construct: expressed in transfected cells; host or cells: HEK293
T2 sequence (P48546 22-466): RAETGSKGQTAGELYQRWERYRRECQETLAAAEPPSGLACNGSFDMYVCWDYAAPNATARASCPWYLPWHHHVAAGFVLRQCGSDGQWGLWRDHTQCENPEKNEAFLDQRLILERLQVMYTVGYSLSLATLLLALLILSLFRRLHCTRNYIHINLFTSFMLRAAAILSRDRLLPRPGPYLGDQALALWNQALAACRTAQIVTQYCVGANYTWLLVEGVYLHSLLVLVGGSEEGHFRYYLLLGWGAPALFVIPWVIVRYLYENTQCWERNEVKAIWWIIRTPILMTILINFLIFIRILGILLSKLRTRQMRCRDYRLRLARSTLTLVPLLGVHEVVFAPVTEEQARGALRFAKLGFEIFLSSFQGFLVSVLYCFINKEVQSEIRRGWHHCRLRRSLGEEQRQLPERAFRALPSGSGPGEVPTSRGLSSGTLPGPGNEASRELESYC
Briefly: Functional assay-cAMP synthesis, luciferase reporter in HEK293 cells, GIP receptor. The class given is cell-based. The conditions noted are these: for % Relative activity at the Receptor for GIP: relative to the native hormone; for GIP Receptor % relative activity: activity relative to the native hormone at the indicated receptor; for EC50: read-out: GIP Receptor EC50, cAMP induction, in vitro, as in Example 14.

T1 sequence (P47871 26-477): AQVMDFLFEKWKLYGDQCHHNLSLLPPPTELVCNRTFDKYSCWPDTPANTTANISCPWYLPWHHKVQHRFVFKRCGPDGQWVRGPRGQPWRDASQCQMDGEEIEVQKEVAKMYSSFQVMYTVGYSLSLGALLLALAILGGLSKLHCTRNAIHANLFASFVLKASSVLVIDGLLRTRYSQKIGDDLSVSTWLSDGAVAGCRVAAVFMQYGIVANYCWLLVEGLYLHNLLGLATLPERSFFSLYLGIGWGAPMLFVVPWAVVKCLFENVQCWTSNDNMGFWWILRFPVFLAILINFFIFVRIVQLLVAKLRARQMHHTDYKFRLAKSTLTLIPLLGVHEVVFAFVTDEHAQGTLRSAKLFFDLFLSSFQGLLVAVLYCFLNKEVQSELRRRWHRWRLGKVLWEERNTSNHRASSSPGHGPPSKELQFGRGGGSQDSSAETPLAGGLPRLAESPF
GLP-1 receptor, sequence (P43220 24-463, species assumed): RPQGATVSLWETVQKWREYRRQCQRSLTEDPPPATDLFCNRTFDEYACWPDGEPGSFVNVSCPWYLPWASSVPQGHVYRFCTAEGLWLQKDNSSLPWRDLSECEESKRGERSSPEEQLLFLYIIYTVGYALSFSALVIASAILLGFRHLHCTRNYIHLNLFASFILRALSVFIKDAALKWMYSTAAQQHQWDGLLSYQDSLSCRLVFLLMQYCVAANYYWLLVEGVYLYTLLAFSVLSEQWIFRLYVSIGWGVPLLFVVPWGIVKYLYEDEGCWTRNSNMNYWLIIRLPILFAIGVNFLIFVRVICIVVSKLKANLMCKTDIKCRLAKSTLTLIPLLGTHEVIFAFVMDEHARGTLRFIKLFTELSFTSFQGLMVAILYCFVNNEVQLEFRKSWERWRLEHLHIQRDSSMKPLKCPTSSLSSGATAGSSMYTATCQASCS

In the case of `CCCCCCCCCCCCCC(=O)NCCCC[C@H](NC(=O)[C@H](CC(=O)O)NC(=O)[C@H](CO)NC(=O)[C@@H](NC(=O)[C@H](Cc1ccccc1)NC(=O)[C@@H](NC(=O)CNC(=O)[C@H](CCC(N)=O)NC(=O)[C@@H](CO)NC(=O)[C@@H](N)Cc1c[nH]cn1)[C@@H](C)O)[C@@H](C)O)C(=O)N[C@@H](CO)C(=O)N[C@@H](CCCCN)C(=O)N[C@@H](Cc1ccc(O)cc1)C(=O)N[C@@H](CC(C)C)C(=O)N[C@@H](CC(=O)O)C(=O)N[C@@H](CCC(=O)O)C(=O)N[C@@H](CCCNC(=N)N)C(=O)N[C@@H](CCCNC(=N)N)C(=O)N[C@@H](C)C(=O)N[C@@H](CCCCN)C(=O)N[C@@H](CC(=O)O)C(=O)N[C@@H](Cc1ccccc1)C(=O)N[C@H](C(=O)N[C@@H](CCC(N)=O)C(=O)N[C@@H](Cc1c[nH]c2ccccc12)C(=O)N[C@@H](CC(C)C)C(=O)N[C@@H](CCSC)C(=O)N[C@@H](CC(N)=O)C(=O)N[C@H](C(N)=O)[C@@H](C)O)C(C)C` [dS2, E16/K20, K10(C14) Gluc Amide, HXQGTFTSDKSKYLDERRAKDFVQWLMNT-amide], the “% Activity of Glucagon” value at glucagon receptor was 21.9%. Further, on GLP-1 receptor, the “% Activity of GLP-1” value turned out to be 6.3%.

Turning to `CCCCCCCCCCCCCCCC(=O)NCCCC[C@H](NC(=O)[C@H](CC(=O)O)NC(=O)[C@H](CO)NC(=O)[C@@H](NC(=O)[C@H](Cc1ccccc1)NC(=O)[C@@H](NC(=O)CNC(=O)[C@H](CCC(N)=O)NC(=O)[C@@H](CO)NC(=O)[C@@H](N)Cc1c[nH]cn1)[C@@H](C)O)[C@@H](C)O)C(=O)N[C@@H](CO)C(=O)N[C@@H](CCCCN)C(=O)N[C@@H](Cc1ccc(O)cc1)C(=O)N[C@@H](CC(C)C)C(=O)N[C@@H](CC(=O)O)C(=O)N[C@@H](CCC(=O)O)C(=O)N[C@@H](CCCNC(=N)N)C(=O)N[C@@H](CCCNC(=N)N)C(=O)N[C@@H](C)C(=O)N[C@@H](CCCCN)C(=O)N[C@@H](CC(=O)O)C(=O)N[C@@H](Cc1ccccc1)C(=O)N[C@H](C(=O)N[C@@H](CCC(N)=O)C(=O)N[C@@H](Cc1c[nH]c2ccccc12)C(=O)N[C@@H](CC(C)C)C(=O)N[C@@H](CCSC)C(=O)N[C@@H](CC(N)=O)C(=O)N[C@H](C(N)=O)[C@@H](C)O)C(C)C` [dS2, E16/K20, K10(C16) Gluc Amide, HXQGTFTSDKSKYLDERRAKDFVQWLMNT-amide], the “% Activity of Glucagon” value at glucagon receptor is recorded as 44.7%. On GLP-1 receptor, the “% Activity of GLP-1” value amounted to 19.5%.

In the case of `CCCCCCCCCCCCCCCCCC(=O)NCCCC[C@H](NC(=O)[C@H](CC(=O)O)NC(=O)[C@H](CO)NC(=O)[C@@H](NC(=O)[C@H](Cc1ccccc1)NC(=O)[C@@H](NC(=O)CNC(=O)[C@H](CCC(N)=O)NC(=O)[C@@H](CO)NC(=O)[C@@H](N)Cc1c[nH]cn1)[C@@H](C)O)[C@@H](C)O)C(=O)N[C@@H](CO)C(=O)N[C@@H](CCCCN)C(=O)N[C@@H](Cc1ccc(O)cc1)C(=O)N[C@@H](CC(C)C)C(=O)N[C@@H](CC(=O)O)C(=O)N[C@@H](CCC(=O)O)C(=O)N[C@@H](CCCNC(=N)N)C(=O)N[C@@H](CCCNC(=N)N)C(=O)N[C@@H](C)C(=O)N[C@@H](CCCCN)C(=O)N[C@@H](CC(=O)O)C(=O)N[C@@H](Cc1ccccc1)C(=O)N[C@H](C(=O)N[C@@H](CCC(N)=O)C(=O)N[C@@H](Cc1c[nH]c2ccccc12)C(=O)N[C@@H](CC(C)C)C(=O)N[C@@H](CCSC)C(=O)N[C@@H](CC(N)=O)C(=O)N[C@H](C(N)=O)[C@@H](C)O)C(C)C` [dS2, E16/K20, K10(C18) Gluc Amide], at glucagon receptor, the “% Activity of Glucagon” value was found to be 196%. For the same molecule, the “% Activity of GLP-1” value on GLP-1 receptor is given as 60%.

Take `CCCCCCCCCCCCCC(=O)NCCCC[C@H](NC(=O)[C@H](CO)NC(=O)[C@@H]1CCCN1C(=O)[C@@H]1CCCN1C(=O)[C@@H]1CCCN1C(=O)[C@H](C)NC(=O)CNC(=O)[C@H](CO)NC(=O)[C@H](CO)NC(=O)[C@@H]1CCCN1C(=O)CNC(=O)CNC(=O)[C@H](CC(N)=O)NC(=O)[C@H](CCSC)NC(=O)[C@H](CC(C)C)NC(=O)[C@H](Cc1c[nH]c2ccccc12)NC(=O)[C@H](CS)NC(=O)[C@@H](NC(=O)[C@H](Cc1ccccc1)NC(=O)[C@H](CCC(=O)O)NC(=O)[C@H](CCCCN)NC(=O)[C@H](C)NC(=O)[C@H](C)NC(=O)[C@H](CCC(N)=O)NC(=O)C(C)(C)NC(=O)[C@H](CC(=O)O)NC(=O)[C@H](CC(C)C)NC(=O)[C@H](Cc1ccc(O)cc1)NC(=O)[C@H](CCCCN)NC(=O)[C@H](CO)NC(=O)[C@H](Cc1ccc(O)cc1)NC(=O)[C@H](CC(=O)O)NC(=O)[C@H](CO)NC(=O)[C@@H](NC(=O)[C@H](Cc1ccccc1)NC(=O)[C@@H](NC(=O)CNC(=O)[C@H](CCC(N)=O)NC(=O)C(C)(C)NC(=O)[C@@H](N)Cc1c[nH]cn1)[C@@H](C)O)[C@@H](C)O)[C@@H](C)CC)C(N)=O` [mt-347] (H-H[Aib]QGTFTSDYSKYLD[Aib]QAAKEFICWLMNGGPSSGAPPPSK(Myristoyl)-NH2; N-terminus assumed): the “% Relative activity at the Receptor for Glucagon” value on glucagon receptor (Table 35) is on record as 111%. The “Glucagon Receptor % relative activity” value at glucagon receptor came to 111.36%. In addition, the “% Relative activity at the Receptor for GIP” value on GIP receptor (Table 35) is on record as 0.7%. The “GIP Receptor % relative activity” value on GIP receptor is reported as 0.70%. Besides, on GLP-1 receptor (Table 35), the “% Relative activity at the Receptor for GLP-1” value is given as 67%. In addition, at GLP-1 receptor, the “GLP-1 Receptor % relative activity” value was 67.07%.

As for `CCCCCCCCCCCCCCCC(=O)NCCCC[C@H](NC(=O)[C@H](CO)NC(=O)[C@@H]1CCCN1C(=O)[C@@H]1CCCN1C(=O)[C@@H]1CCCN1C(=O)[C@H](C)NC(=O)CNC(=O)[C@H](CO)NC(=O)[C@H](CO)NC(=O)[C@@H]1CCCN1C(=O)CNC(=O)CNC(=O)[C@H](C)NC(=O)[C@H](CC(C)C)NC(=O)[C@H](CC(C)C)NC(=O)[C@H](Cc1c[nH]c2ccccc12)NC(=O)[C@H](CC(N)=O)NC(=O)[C@@H](NC(=O)[C@H](Cc1ccccc1)NC(=O)[C@H](CCC(=O)O)NC(=O)C(C)(C)NC(=O)[C@H](C)NC(=O)[C@H](C)NC(=O)[C@H](CCC(N)=O)NC(=O)[C@H](CCCCN)NC(=O)[C@H](CC(=O)O)NC(=O)[C@H](CC(C)C)NC(=O)[C@H](Cc1ccc(O)cc1)NC(=O)[C@@H](NC(=O)[C@H](CO)NC(=O)[C@H](Cc1ccc(O)cc1)NC(=O)[C@H](CC(=O)O)NC(=O)[C@H](CO)NC(=O)[C@@H](NC(=O)[C@H](Cc1ccccc1)NC(=O)[C@@H](NC(=O)CNC(=O)[C@H](CCC(N)=O)NC(=O)C(C)(C)NC(=O)[C@@H](N)Cc1ccc(O)cc1)[C@@H](C)O)[C@@H](C)CC)[C@@H](C)CC)C(C)C)C(N)=O` [mt-358] (H-Y[Aib]QGTFISDYSIYLDKQAA[Aib]EFVNWLLAGGPSSGAPPPSK(Palmitoyl)-NH2), at glucagon receptor (Table 36), the “% Relative activity at the Receptor for Glucagon” value came out at 710.29%. For the same molecule, the “% Relative activity at the Receptor for GIP” value on GIP receptor (Table 36) was determined as 313.61%. The “% Relative activity at the Receptor for GLP-1” value on GLP-1 receptor (Table 36) was determined as 11.89%.

As for “H-HSQGTFTSDYSKYLDSRRAQDFVQWLVKGGPSSGAPPPS-NH2 [VKGG^30 PSSGAPPPS (SEQ ID NO: 524)]”, the “Glucagon Receptor Relative Potency” value on glucagon receptor (Table 11) is 7%. Further, the “GLP-1 Receptor Relative Potency” value on GLP-1 receptor (Table 11) was 12%.

Regarding “mt-349 (H[Aib]QGTFTSDYSKYLDEQAAKEFIC(PEG 40 kDa)WLMNGGPSSGAPPPSK(Myristoyl)-NH2; also: acylated with a C14 fatty acyl group, site not given here)”, the “Glucagon Receptor % relative activity” value in the assay with glucagon receptor came to 3.82%. The concentration giving a half-maximal response (EC50) – broadly, the concentration that produces a half-maximal response – with glucagon receptor (read-out: Glucagon Receptor EC50, cAMP induction, in vitro, as in Example 14) turned out to be 0.549 nM. Also, in the assay with GIP receptor, the “GIP Receptor % relative activity” value came to 0.18% and the EC50 stood at 1.99 nM. In the assay with GLP-1 receptor, the “GLP-1 Receptor % relative activity” value worked out at 286.36% and the EC50 turned out to be 0.0022 nM.

On to “mt-351: pegylated glucagon peptide of Table 34 (H[Aib]QGTFTSDYSKYLD[Aib]QAAKEFIC(PEG 40 kDa)WLMNGGPSSGAPPPSK(Myristoyl)-NH2; also: acylated with a C14 fatty acyl group, site not given here)”, for which, in the assay with GIP receptor, the “GIP Receptor % relative activity” value amounted to 0.09% and the EC50 worked out at 4.12 nM. Also, in the assay with GLP-1 receptor, the “GLP-1 Receptor % relative activity” value is recorded as 150.00% and the EC50 stood at 0.0042 nM.

For “mt-352: pegylated glucagon peptide of Table 34 (H[Aib]QGTFTSDYSKYLD[Aib]QAAKEFIC(PEG 40 kDa)WLMNGGPSSGAPPPSK-NH2)”, in the assay with GIP receptor, the “GIP Receptor % relative activity” value amounted to 0.01% and the half-maximal effective concentration (EC50) is 51.1 nM. Moreover, in the assay with GLP-1 receptor, the “GLP-1 Receptor % relative activity” value stood at 23.08% and the concentration giving a half-maximal response (EC50) is 0.0273 nM.
